Laboratory results from US11020395B2, “Cycloalkyl substituted triazole compounds as agonists of the APJ receptor” (AMGEN INC., priority 2016, dated 2021).

Each molecule was assayed against human APJ receptor (Homo sapiens (Human), UniProt P35414) (assay: [35S]GTPγS binding assay on membranes from CHO cells stably expressing human APJ receptor). Conditions: [35S]GTPγS SPA, read-out: Activity hAPJ SPA EC50 IP.
Sequence of human APJ receptor (P35414 whole entry): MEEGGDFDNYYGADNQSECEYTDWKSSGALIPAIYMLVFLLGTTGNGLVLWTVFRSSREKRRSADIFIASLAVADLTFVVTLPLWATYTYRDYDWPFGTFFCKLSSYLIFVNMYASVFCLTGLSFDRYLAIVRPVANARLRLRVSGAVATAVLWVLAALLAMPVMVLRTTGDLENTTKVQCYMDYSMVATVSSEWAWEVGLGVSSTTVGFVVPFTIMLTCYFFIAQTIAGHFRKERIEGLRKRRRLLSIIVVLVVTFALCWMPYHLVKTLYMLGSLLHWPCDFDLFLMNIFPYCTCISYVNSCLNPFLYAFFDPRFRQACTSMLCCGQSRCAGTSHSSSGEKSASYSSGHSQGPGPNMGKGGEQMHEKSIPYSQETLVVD
Format: biochemical
Protocol: [^35S]GTPγS Binding The human APJ receptor was cloned by polymerase chain reaction and the gene encoding the receptor was subcloned in pFLAG-CMV™-3 expression vector (Sigma, Saint Louis, Mo. USA) in-house at Amgen. A GTPγS binding assay was performed on membranes prepared from CHO cells stably expressing human APJ receptor. The optimum experimental conditions for the concentrations of GDP, MgCl2, and NaCl in the assay buffer were initially determined. […] Incubation was at RT for 90 min and the microplate was read using a ViewLux™ ultra HTS Microplate Imager (PerkinElmer, Inc.). All the results presented are means of several independent experiments and analyzed by non-linear regression methods using the commercially available program Prism (GraphPad, San Diego, Calif.) providing the EC50 values detailed in Table 25.
`COc1ncnc(OC)c1-n1c(NS(=O)(=O)[C@@H](C)[C@H](OC)c2ncc(Cl)cn2)nnc1[C@H]1CC[C@@H](OC)CC1` (single isomer, unassigned) [Example 174.0, (1R,2S)-1-(5-chloropyrimidin-2-yl)-N-(4-(4,6-dimethoxypyrimidin-5-yl)-5-((1s,4R)-4-methoxycyclohexyl)-4H-1,2,4-triazol-3-yl)-1-methoxypropane-2-sulfonamide or (1R,2S)-1-(5-chloropyrimidin-2-yl)-N-(4-(4,6-dimethoxypyrimidin-5-yl)-5-((1r,4S)-4-methoxycyclohexyl)-4H-1,2,4-triazol-3-yl)-1-methoxypropane-2-sulfonamide] was tested, and the EC50 was 1200 nM. Molecule `COc1ncnc(OC)c1-n1c(NS(=O)(=O)[C@@H](C)[C@H](OC)c2ncc(Cl)cn2)nnc1[C@H]1C[C@@H](C(F)(F)F)C1` (single isomer, unassigned) [Example 177.0, (1R,2S)-1-(5-chloropyrimidin-2-yl)-N-(4-(4,6-dimethoxypyrimidin-5-yl)-5-((1s,3R)-3-(trifluoromethyl)cyclobutyl)-4H-1,2,4-triazol-3-yl)-1-methoxypropane-2-sulfonamide or (1R,2S)-1-(5-chloropyrimidin-2-yl)-N-(4-(4,6-dimethoxypyrimidin-5-yl)-5-((1r,3S)-3-(trifluoromethyl)cyclobutyl)-4H-1,2,4-triazol-3-yl)-1-methoxypropane-2-sulfonamide] has an EC50 of 23 nM. With `COc1ncnc(OC)c1-n1c(NS(=O)(=O)[C@@H](C)[C@H](C)c2ncc(C)cn2)nnc1C1CC1` [Example 3.0, (2S,3R)-N-(5-cyclopropyl-4-(4,6-dimethoxy-5-pyrimidinyl)-4H-1,2,4-triazol-3-yl)-3-(5-methyl-2-pyrimidinyl)-2-butanesulfonamide] the EC50 was 56 nM. With `COc1ncnc(OC)c1-n1c(NS(=O)(=O)[C@@H](C)[C@H](OC)c2ncc(Cl)cn2)nnc1[C@H]1CC[C@@H](F)CC1` (single isomer, unassigned) [Example 175.0, (1R,2S)-1-(5-chloropyrimidin-2-yl)-N-(4-(4,6-dimethoxypyrimidin-5-yl)-5-((1s,4R)-4-fluorocyclohexyl)-4H-1,2,4-triazol-3-yl)-1-methoxypropane-2-sulfonamide or (1R,2S)-1-(5-chloropyrimidin-2-yl)-N-(4-(4,6-dimethoxypyrimidin-5-yl)-5-((1r,4S)-4-fluorocyclohexyl)-4H-1,2,4-triazol-3-yl)-1-methoxypropane-2-sulfonamide] the EC50 was 59 nM. `COc1ncnc(OC)c1-n1c(NS(=O)(=O)[C@@H](C)[C@H](OC)c2ncc(Cl)cn2)nnc1C1CC2(CCC2)C1` [Example 184.0, (1R,2S)-1-(5-chloro-2-pyrimidinyl)-N-(4-(4,6-dimethoxy-5-pyrimidinyl)-5-(spiro[3.3]heptan-2-yl)-4H-1,2,4-triazol-3-yl)-1-methoxy-2-propanesulfonamide] showed an EC50 of 1.1 nM. For `COc1cccc(OC)c1-n1c(NS(=O)(=O)[C@@H](C)[C@H](OC)c2ncc(Cl)cn2)nnc1[C@H]1CC[C@H](OC)C1` (single isomer, unassigned) [Example 215.0], the EC50 was 66 nM. “(1R,2S)-1-(5-chloropyrimidin-2-yl)-N-(4-(2,6-dimethoxyphenyl)-5-((R)-3-oxocyclopentyl)-4H-1,2,4-triazol-3-yl)-1-methoxypropane-2-sulfonamide or (1R,2S)-1-(5-chloropyrimidin-2-yl)-N-(4-(2,6-dimethoxyphenyl)-5-((S)-3-oxocyclopentyl)-4H-1,2,4-triazol-3-yl)-1-methoxypropane-2-sulfonamide [Example 225.0]” was tested, and the EC50 was 160 nM. In the case of `COc1cccc(OC)c1-n1c(NS(=O)(=O)[C@@H](C)[C@H](OC)c2ncc(Cl)cn2)nnc1C1CCC1C#N` (single isomer, unassigned) [Example 170.0, (1R,2S)-1-(5-chloropyrimidin-2-yl)-N-(5-((1R,2R)-2-cyanocyclobutyl)-4-(2,6-dimethoxyphenyl)-4H-1,2,4-triazol-3-yl)-1-methoxypropane-2-sulfonamide or (1R,2S)-1-(5-chloropyrimidin-2-yl)-N-(5-((1R,2R)-2-cyanocyclobutyl)-4-(2,6-dimethoxyphenyl)-4H-1,2,4-triazol-3-yl)-1-methoxypropane-2-sulfonamide], the EC50 is reported as 18 nM. With `COc1ncnc(OC)c1-n1c(NS(=O)(=O)[C@@H](C)[C@@H](OC(C)C)c2ncc(Cl)cn2)nnc1[C@@H]1CC[C@@H]1C(F)F` (single isomer, unassigned) [Example 168.0, (1S,2S)-1-(5-chloropyrimidin-2-yl)-N-(5-((1R,2S)-2-(difluoromethyl)cyclobutyl)-4-(4,6-dimethoxypyrimidin-5-yl)-4H-1,2,4-triazol-3-yl)-1-isopropylpropane-2-sulfonamide or (1S,2S)-1-(5-chloropyrimidin-2-yl)-N-(5-((1S,2R)-2-(difluoromethyl)cyclobutyl)-4-(4,6-dimethoxypyrimidin-5-yl)-4H-1,2,4-triazol-3-yl)-1-isopropoxypropane-2-sulfonamide] the EC50 was 8 nM. `COc1cccc(OC)c1-n1c(NS(=O)(=O)[C@@H](C)[C@H](OC)c2ncc(Cl)cn2)nnc1C1CC2(CC2)C1` [Example 239.0, (1R,2S)-1-(5-chloro-2-pyrimidinyl)-N-(4-(2,6-dimethoxyphenyl)-5-(spiro[2.3]hexan-5-yl)-4H-1,2,4-triazol-3-yl)-1-methoxy-2-propanesulfonamide] showed an EC50 of 0.64 nM. `COc1ncnc(OC)c1-n1c(NS(=O)(=O)[C@@H](C)[C@H](C)c2ncc(C)cn2)nnc1C1CCC1` [Example 4.0, (2S,3R)-N-(5-cyclobutyl-4-(4,6-dimethoxy-5-pyrimidinyl)-4H-1,2,4-triazol-3-yl)-3-(5-methyl-2-pyrimidinyl)-2-butanesulfonamide] gave an EC50 of 21 nM. `COc1cccc(OC)c1-n1c(NS(=O)(=O)[C@@H](C)[C@H](OC)c2ncc(Cl)cn2)nnc1[C@H]1C[C@H](Cl)C1` (single isomer, unassigned) [Example 153.0, (1R,2S)-1-(5-chloropyrimidin-2-yl)-N-(4-(2,6-dimethoxyphenyl)-5-((1r,3S)-3-chlorocyclobutyl)-4H-1,2,4-triazol-3-yl)-1-methoxypropane-2-sulfonamide or (1R,2S)-1-(5-chloropyrimidin-2-yl)-N-(4-(2,6-dimethoxyphenyl)-5-((1s,3R)-3-chlorocyclobutyl)-4H-1,2,4-triazol-3-yl)-1-methoxypropane-2-sulfonamide] was tested, and the EC50 was 1.5 nM. For `COc1ncnc(OC)c1-n1c(NS(=O)(=O)[C@@H](C)[C@H](OC)c2ncc(Cl)cn2)nnc1C1CCC1` [Example 7.0, (1R,2S)-1-(5-chloro-2-pyrimidinyl)-N-(5-cyclobutyl-4-(4,6-dimethoxy-5-pyrimidinyl)-4H-1,2,4-triazol-3-yl)-1-methoxy-2-propanesulfonamide], the EC50 was 66 nM. In the case of `COc1cccc(OC)c1-n1c(NS(=O)(=O)[C@@H](C)[C@H](OC)c2ncc(C)cn2)nnc1C1CCC1` [Example 141.0], the EC50 is reported as 33 nM. `COc1ncnc(OC)c1-n1c(NS(=O)(=O)[C@@H](C)[C@H](OC)c2ccc(Cl)cn2)nnc1C1CCC1` (single isomer, unassigned) [Example 91.0, (1R,2S)-1-(5-chloropyridin-2-yl)-N-(5-cyclobutyl-4-(4,6-dimethoxypyrimidin-5-yl)-4H-1,2,4-triazol-3-yl)-1-methoxypropane-2-sulfonamide or (1S,2R)-1-(5-chloropyridin-2-yl)-N-(5-cyclobutyl-4-(4,6-dimethoxypyrimidin-5-yl)-4H-1,2,4-triazol-3-yl)-1-methoxypropane-2-sulfonamide] gave an EC50 of 2.9 nM. In the case of `COc1cccc(OC)c1-n1c(NS(=O)(=O)[C@@H](C)[C@H](OC)c2ncc(Cl)cn2)nnc1[C@H]1C[C@@H](C#N)C1` (single isomer, unassigned) [Example 122.0, (1R,2S)-1-(5-chloro-2-pyrimidinyl)-N-(5-(cis-3-cyanocyclobutyl)-4-(2,6-dimethoxyphenyl)-4H-1,2,4-triazol-3-yl)-1-methoxy-2-propanesulfonamide or (1R,2S)-1-(5-chloro-2-pyrimidinyl)-N-(5-(trans-3-cyanocyclobutyl)-4-(2,6-dimethoxyphenyl)-4H-1,2,4-triazol-3-yl)-1-methoxy-2-propanesulfonamide], the EC50 is reported as 28 nM. `COc1ncnc(OC)c1-n1c(NS(=O)(=O)[C@@H](C)[C@@H](OC(C)C)c2ncc(Cl)cn2)nnc1C1CCC1` [Example 89.0, (1S,2S)-1-(5-chloro-2-pyrimidinyl)-N-(5-cyclobutyl-4-(4,6-dimethoxy-5-pyrimidinyl)-4H-1,2,4-triazol-3-yl)-1-(2-propanyloxy)-2-propanesulfonamide] was tested, and the EC50 was 0.74 nM. `CO[C@H](c1ncc(Cl)cn1)[C@H](C)S(=O)(=O)Nc1nnc([C@H]2C[C@H](CO)C2)n1C1CC1` (single isomer, unassigned) [Example 135.0, (1R,2S)-1-(5-chloro-2-pyrimidinyl)-N-(4-cyclopropyl-5-(trans-3-(hydroxymethyl)cyclobutyl)-4H-1,2,4-triazol-3-yl)-1-methoxy-2-propanesulfonamide or (1R,2S)-1-(5-chloro-2-pyrimidinyl)-N-(4-cyclopropyl-5-(cis-3-(hydroxymethyl)cyclobutyl)-4H-1,2,4-triazol-3-yl)-1-methoxy-2-propanesulfonamide] was tested, and the EC50 was 1810 nM. With `COc1ncnc(OC)c1-n1c(NS(=O)(=O)[C@@H](C)[C@H](OC)c2ncc(Cl)cn2)nnc1C1CC2(CC2)C1` [Example 183.0, (1R,2S)-1-(5-chloro-2-pyrimidinyl)-N-(4-(4,6-dimethoxy-5-pyrimidinyl)-5-(spiro[2.3]hexan-5-yl)-4H-1,2,4-triazol-3-yl)-1-methoxy-2-propanesulfonamide] the EC50 was 1.4 nM.
